The values that follow come from patent US10494402B2, “Peptides that stimulate subcutaneous adipogenesis” (The Regents of the University of California, priority 2012, dated 2019).

Entries after “also recorded” stand apart in the source; their conditions may differ.

Test [1] has as its system human reticular fibroblasts (HRF). Put plainly: Transdifferentiation of primary human dermal fibroblasts, reticular. It counts as cell-based. The note with it: 5 μg/ml, peptide replaced insulin. The method, then:
(§1) The B peptide and the KSEVSK 6-mer were also tested for their adipogenic effect on primary human dermal fibroblasts from the upper (papillary) and lower (reticular) dermal layers. The primary human fibroblasts were obtained from dermatome sections of biopsies from human volunteers. Cells were cultured and exposed to adipogenic medium. In these experiments, the B peptide and the KSEVSK 6-mer replaced insulin as the adipogenic stimulus. The peptides were used at a concentration of 5 μg/ml. Adipogenesis was assessed by Oil Red O staining. […] White arrows show fat droplets.

In test [2] the test system is human papillary fibroblasts (HPF). Put plainly: Transdifferentiation of primary human dermal fibroblasts, papillary. As to conditions: 5 μg/ml; peptide replaced insulin. Format: cell-based. The method, then:
as §1

Test [3] concerns rat mesenchymal stem cells. Put plainly: Adipogenesis Assay 2 (dexamethasone/insulin/indomethacin induction, then peptide; Oil Red O or BODIPY). It counts as cell-based. As to conditions: Assay 2. As to the method: Reagents: The dexamethasone, insulin, and Oil Red O solutions were the same as described above for assay 1. Indomethacin Solution contained 10 mM indomethacin in methanol. The BODIPY 493/503 dye was used at a concentration of 4 μM.
Adipogenesis Maintenance Media was prepared as described above.
Adipogenesis Induction Media: To prepare 501 mL of Adipogenesis Induction Media, 50 μL of the 10 mM stock solution of dexamethasone, 500 μL of the 10 mg/ml stock solution of insulin, 5 ml of a 10 mM stock solution of indomethacin, and 5 mL of a 100× stock solution of penicillin and streptomycin were added to 490 mL of mesenchymal stem cell expansion media.
Pre-adipocyte stem cells, bone marrow mesenchymal stem cells and fibroblasts such as dermal reticular and papillary fibroblasts were propagated using standard tissue culture methods. Cells were trypsinized to remove cells from the substratum, the trypsin was neutralized, and cells were counted using a hemocytometer. Cells were resuspended at 60,000 cells/ml in low glucose DMEM containing 10% calf serum. 1 mL of cell suspension per well was plated in a 24-well plate, with several wells left empty for blank well staining.
Cells were incubated overnight and had reached confluency at this point. Approximately 1.8 ml of media was removed from each well and replaced with 2 ml Adipogenesis Induction Media. For negative control wells, expansion medium only was used at this step and for subsequent media changes. For all media changes, media was replaced as gently as possible to avoid disturbing the monolayer.
Media was removed and replaced with 2 ml of maintenance medium containing either RHAMM antagonist peptides (experimental group) or insulin (concentration as in the induction medium used as positive control). […]
Media was removed and BODIPY or Oil Red O staining was performed as described above for assay 1.
As described above in Example 1, two different adipogenesis assays were used herein to assess the adipogenic effects of the peptides in rat mesenchymal stem cells. Assay 1 is an assay that is typically used to promote transdifferentiation of fibroblasts into adipocytes, whereas Assay 2 is typically used to promote differentiation of multi-potential mesenchymal progenitor cells into adipocytes. Immortalized rat bone marrow mesenchymal stem cells were used for both assays. These cells contain cells of different lineages, including fibroblasts, pre-adipocytes, pre-chondrocytes and pre-osteoblasts. Thus, Assay 1 was used to promote transdifferentiation of the fibroblast lineages into adipocytes and Assay 2 was used to promote differentiation of the pre-adipocytes into adipocytes.
As described in Example 1 above, the priming stimulus for Assay 1 includes IBMX (3-isobutyl-1-methylxanthine) and dexamethasone, and then insulin as the final adipogenic stimulus. The priming stimulus for assay 2 includes IBMX, dexamethasone and indomethacin, and then insulin as the final adipogenic stimulus.

For test [4], the system named is human subcutaneous pre-adipocytes. Description: Differentiation of human subcutaneous pre-adipocytes. It counts as cell-based. As to conditions: for adipogenesis, Oil Red O staining, absence of both insulin and PPARγ agonist: FIGS. 23, 24; for adipogenesis, extracted Oil Red O: experimental cocktail lacked PPARγ agonist and insulin. The source says:
As noted above, this adipogenic cocktail contained pantothenate, dexamethasone, isobutylmethylxanthine (IBMX), human insulin and a PPARγ agonist. For these experiments, the following conditions were used as negative controls: (1) Preadipocyte Medium only; (2) the adipogenic cocktail without PPARγ agonist (PPARγ-); and (3) the adipogenic cocktail without PPARγ agonist or human insulin.
The positive control for FIG. 21 was the complete adipogenic medium containing both the PPARγ agonist and insulin: The experimental cocktail contained the B peptide or the KSEVSK 6-mer, but lacked PPARγ agonist and insulin. Adipogenesis levels were quantified by measuring extracted Oil Red 0.
The following conditions were used as negative controls: (Ctr no-γ)=monolayers cultured in adipogenic cocktail but without PPARγ agonist, (Ctr no-γ, no-Ins)=monolayers cultured in adipogenic cocktail but without PPARγ agonist or human insulin. To test the adipogenic activity of the KSEVSK 6-mer and B peptides, the human pre-adipocytes were exposed to the above negative controls plus either the KSEVSK 6-mer or the B peptide at concentrations of 5 μg/ml and 20 μg/ml. Statistical analysis were performed compared to negative control. Data presented as mean±standard error (n=3)

A further test relates to Rat skin. Put plainly: Rat dermal skin model of adipogenesis (injection into dermis). Format: in vivo. The method, then: Examples of the adipogenic effects of RHAMM antagonists (peptide B (SEQ ID NO: 2), peptide P15-1 (SEQ ID NO. 1), and the antibody to peptide B) are summarized in Table 1. Peptide P15-1, peptide B, and a RHAMM antibody were assayed for their effects on pre-adipocyte stem cells in culture and when injected into the dermis of aged rats. Reagents were ranked on a scale of 0-5 with 5 representing the highest possible score and a completely filled in Harvey ball. “2D” refers to two-dimensional tissue culture.
In FIGS. 5A and 5B, data are shown as a ratio of the area (“surface area”) of fat pads expressed as a ratio of experimental/control values.
The 6-mer (KSEVSK; SEQ ID NO: 3) was tested for adipogenic effect in rat skin in vivo. The results of this testing are shown in the photographs in FIG. 10.

With KLKDENSQLKSEVSK [peptide B], the “transdifferentiation into adipocytes, Oil Red O staining” value (“transdifferentiation into adipocytes” for short) in test [1] (listed as B peptide) is “stimulated the transdifferentiation; also recorded: stimulated the trans-differentiation”. For the same substance, the “transdifferentiation into adipocytes” value in test [2] was “had no effect”. Also, in test [3], the “Fold adipogenic induction vs. negative control” value came out at 4.0 and the “Specific activity (activity/1000 daltons)” value is 2.17 activity/1000 daltons. In test [4], the “adipogenesis, Oil Red O staining, absence of both insulin and PPARγ agonist” value is reported as “stimulates adipogenesis”; the “adipogenesis, extracted Oil Red O” value is “significantly (p<0.05) increased adipogenesis above the negative control levels”. In addition, in the test with Rat skin (25-50 μg/injection site), the “fat accumulation (fat pads)” value was “induced significant fat accumulation”. Also, the “animals in which reagent was most effective (fat pad surface area, experimental/control)” value with Rat skin (FIGS. 5A and 5B) is recorded as “most effective in old females”. In the test with Rat skin (injected into the dermis of aged rats, scale of 0-5, 5 highest), the “adipogenic potential, In vivo Rat skin” value was found to be 5.

For KSEVSK [KSEVSK 6-mer], the “transdifferentiation into adipocytes” value in test [1] is listed as “stimulated the transdifferentiation”. The “transdifferentiation into adipocytes” value in test [2] is reported as “had no effect”. Further, in test [3], the “Fold adipogenic induction vs. negative control” value turned out to be 2.5 and the “Specific activity (activity/1000 daltons)” value is on record as 3.32 activity/1000 daltons. In addition, the “adipogenesis, Oil Red O staining, absence of PPARγ agonist” value in test [4] (FIG. 22) is given as “stimulates adipogenesis”. Besides, in test [4], the “adipogenesis, Oil Red O staining, absence of both insulin and PPARγ agonist” value is “stimulates adipogenesis”; the “adipogenesis, extracted Oil Red O” value is on record as “significantly (p<0.05) increased adipogenesis above the negative control levels”. Also, the “fat pad induction in rat skin in vivo” value with Rat skin (FIG. 10) is “able to induce large fat pads, possibly larger than peptide B”.
